Test results as given in article PMC11513893, “Discovery of Oral Degraders of the ROS1 Fusion Protein with Potent Activity against Secondary Resistance Mutations” (Journal of Medicinal Chemistry, 2024).
Where “and” joins values, the source holds several entries; their conditions need not be identical. Equal entries are not always repeated.

Legend:
[1] = test system: ROS1; assay: ROS1 degradation in Ba/F3 cells (WES immunoblotting); type: cell-based; conditions: maximal degradation of ROS1 in Ba/F3 cells
Method in brief: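 ROS1 and phospho-ROS1 (Tyr2274/2334) in Ba/F3 lysates quantified by capillary immunoassay (WES) with chemiluminescent detection, duplicate experiments. Levels expressed as AUC of the chemiluminescence peak.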

[2] = target: FAK/PTK2 (Homo sapiens, UniProt Q05397); assay: Kinase assay; type: biochemical; conditions: average of duplicate measurements
Chain of FAK/PTK2 (Q05397 whole entry): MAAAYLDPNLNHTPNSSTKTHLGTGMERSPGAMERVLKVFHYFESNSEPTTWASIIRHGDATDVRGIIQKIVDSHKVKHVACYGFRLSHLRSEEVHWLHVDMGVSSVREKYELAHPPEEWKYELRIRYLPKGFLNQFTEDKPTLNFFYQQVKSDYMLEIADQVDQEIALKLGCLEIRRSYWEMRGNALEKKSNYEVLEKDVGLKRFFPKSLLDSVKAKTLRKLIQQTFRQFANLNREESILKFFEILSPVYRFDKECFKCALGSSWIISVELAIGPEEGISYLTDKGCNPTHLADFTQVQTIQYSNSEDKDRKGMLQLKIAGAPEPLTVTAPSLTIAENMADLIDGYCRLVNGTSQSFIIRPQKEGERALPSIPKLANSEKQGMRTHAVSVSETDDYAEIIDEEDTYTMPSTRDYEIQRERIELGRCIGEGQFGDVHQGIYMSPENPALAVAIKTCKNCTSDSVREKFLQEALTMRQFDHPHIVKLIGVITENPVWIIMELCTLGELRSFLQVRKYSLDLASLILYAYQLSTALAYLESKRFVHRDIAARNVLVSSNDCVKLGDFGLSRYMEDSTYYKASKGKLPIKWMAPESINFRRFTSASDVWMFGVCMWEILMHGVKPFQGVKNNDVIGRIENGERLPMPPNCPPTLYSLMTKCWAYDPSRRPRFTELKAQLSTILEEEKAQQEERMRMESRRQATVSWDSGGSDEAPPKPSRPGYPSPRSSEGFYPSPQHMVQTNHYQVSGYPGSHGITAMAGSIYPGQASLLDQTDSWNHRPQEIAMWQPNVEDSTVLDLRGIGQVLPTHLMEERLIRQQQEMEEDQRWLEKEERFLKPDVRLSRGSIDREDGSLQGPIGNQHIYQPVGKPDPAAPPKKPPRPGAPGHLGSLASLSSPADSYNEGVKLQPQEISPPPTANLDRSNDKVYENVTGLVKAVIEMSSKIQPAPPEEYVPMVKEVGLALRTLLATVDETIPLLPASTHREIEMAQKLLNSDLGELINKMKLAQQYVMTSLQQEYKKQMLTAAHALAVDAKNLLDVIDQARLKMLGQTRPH

[3] = Log P measurement; type: physicochemical
Text: An important physicochemical property for a PROTAC molecule is its lipophilicity that largely dictates its pharmaceutical performance such as absorption, permeability, and distribution.

[4] = Pharmacokinetics study in Sprague–Dawley rats; type: in vivo; conditions: rat, 0.5 mg/kg iv
[5] = target: ROS1 (G2101A) (Homo sapiens, UniProt P08922, G2101A); assay: Kinase assay; type: biochemical; conditions: average of duplicate measurements
Chain of ROS1 (G2101A) (P08922 28-2347 G2101A): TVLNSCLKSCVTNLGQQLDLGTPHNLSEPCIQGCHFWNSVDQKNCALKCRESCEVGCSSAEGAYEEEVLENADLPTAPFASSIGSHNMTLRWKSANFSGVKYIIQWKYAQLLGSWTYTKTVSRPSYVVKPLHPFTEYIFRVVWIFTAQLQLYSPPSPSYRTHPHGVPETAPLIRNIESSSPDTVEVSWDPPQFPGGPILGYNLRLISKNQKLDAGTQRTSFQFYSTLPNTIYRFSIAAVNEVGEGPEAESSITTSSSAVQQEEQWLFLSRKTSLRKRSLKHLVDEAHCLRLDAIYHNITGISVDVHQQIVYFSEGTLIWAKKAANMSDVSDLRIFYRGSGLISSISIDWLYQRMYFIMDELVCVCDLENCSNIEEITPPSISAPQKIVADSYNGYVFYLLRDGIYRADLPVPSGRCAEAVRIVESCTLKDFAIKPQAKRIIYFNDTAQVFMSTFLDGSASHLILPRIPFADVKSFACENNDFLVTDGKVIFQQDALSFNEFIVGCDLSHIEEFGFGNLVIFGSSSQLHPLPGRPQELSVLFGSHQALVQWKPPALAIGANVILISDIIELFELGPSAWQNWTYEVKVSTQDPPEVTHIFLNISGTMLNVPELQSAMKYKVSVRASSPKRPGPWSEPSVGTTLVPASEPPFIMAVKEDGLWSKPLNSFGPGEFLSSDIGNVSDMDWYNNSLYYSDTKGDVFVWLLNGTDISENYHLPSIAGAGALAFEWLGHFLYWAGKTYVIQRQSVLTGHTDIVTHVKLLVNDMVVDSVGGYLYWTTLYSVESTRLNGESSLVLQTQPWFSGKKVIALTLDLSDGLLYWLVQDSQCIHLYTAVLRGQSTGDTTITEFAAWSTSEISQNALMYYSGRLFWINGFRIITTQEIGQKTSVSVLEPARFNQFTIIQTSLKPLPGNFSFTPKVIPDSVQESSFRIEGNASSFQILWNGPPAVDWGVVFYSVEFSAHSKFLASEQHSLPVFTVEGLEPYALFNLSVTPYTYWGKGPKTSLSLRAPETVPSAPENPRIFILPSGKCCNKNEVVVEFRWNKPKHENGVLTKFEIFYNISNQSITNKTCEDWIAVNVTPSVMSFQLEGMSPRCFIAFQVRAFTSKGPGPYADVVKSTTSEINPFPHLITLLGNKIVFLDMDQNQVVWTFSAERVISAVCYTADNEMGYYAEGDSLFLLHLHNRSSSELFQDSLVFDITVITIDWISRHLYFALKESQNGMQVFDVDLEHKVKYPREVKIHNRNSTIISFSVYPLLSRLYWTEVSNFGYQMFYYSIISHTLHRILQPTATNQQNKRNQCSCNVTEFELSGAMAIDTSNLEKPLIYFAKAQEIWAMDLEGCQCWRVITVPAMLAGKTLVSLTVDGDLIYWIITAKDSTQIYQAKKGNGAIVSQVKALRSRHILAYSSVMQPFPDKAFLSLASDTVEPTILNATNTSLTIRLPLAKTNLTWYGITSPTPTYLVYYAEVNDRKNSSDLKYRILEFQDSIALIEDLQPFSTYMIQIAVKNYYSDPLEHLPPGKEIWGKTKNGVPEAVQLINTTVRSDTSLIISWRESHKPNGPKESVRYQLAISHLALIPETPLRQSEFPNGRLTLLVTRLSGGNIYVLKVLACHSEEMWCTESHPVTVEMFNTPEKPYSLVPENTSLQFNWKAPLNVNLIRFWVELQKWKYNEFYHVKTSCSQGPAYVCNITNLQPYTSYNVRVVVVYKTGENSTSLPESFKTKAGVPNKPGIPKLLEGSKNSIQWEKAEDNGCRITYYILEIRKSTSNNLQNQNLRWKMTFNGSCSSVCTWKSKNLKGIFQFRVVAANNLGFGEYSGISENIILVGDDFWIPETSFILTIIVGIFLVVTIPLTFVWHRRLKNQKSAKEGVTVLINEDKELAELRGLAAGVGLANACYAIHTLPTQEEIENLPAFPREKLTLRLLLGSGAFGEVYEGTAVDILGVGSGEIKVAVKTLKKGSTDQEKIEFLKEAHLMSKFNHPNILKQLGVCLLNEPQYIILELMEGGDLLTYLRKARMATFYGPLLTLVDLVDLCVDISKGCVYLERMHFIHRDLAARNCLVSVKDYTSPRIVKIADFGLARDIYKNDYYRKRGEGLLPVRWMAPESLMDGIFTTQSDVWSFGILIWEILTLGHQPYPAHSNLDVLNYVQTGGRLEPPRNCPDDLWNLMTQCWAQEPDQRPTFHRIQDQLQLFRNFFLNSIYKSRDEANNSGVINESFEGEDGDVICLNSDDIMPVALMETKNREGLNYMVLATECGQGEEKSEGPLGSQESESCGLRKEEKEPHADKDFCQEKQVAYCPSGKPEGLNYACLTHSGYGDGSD

[6] = target: C-MET (Homo sapiens, UniProt P08581); assay: Kinase assay; type: biochemical; conditions: average of duplicate measurements
[7] = target: ROS1 (G2101C) (Homo sapiens, UniProt P08922, G2101C); assay: Kinase assay; type: biochemical; conditions: average of duplicate measurements
Chain of ROS1 (G2101C) (P08922 28-2347 G2101C): as the sequence (P08922 28-2347 G2101A) above, with A2074C counted along it

[8] = target: EGFR (Homo sapiens, UniProt P00533); assay: Kinase assay; type: biochemical; conditions: average of duplicate measurements
[9] = target: FLT3 (Homo sapiens, UniProt P36888); assay: Kinase assay; type: biochemical; conditions: average of duplicate measurements
Chain of FLT3 (P36888 27-993, species assumed): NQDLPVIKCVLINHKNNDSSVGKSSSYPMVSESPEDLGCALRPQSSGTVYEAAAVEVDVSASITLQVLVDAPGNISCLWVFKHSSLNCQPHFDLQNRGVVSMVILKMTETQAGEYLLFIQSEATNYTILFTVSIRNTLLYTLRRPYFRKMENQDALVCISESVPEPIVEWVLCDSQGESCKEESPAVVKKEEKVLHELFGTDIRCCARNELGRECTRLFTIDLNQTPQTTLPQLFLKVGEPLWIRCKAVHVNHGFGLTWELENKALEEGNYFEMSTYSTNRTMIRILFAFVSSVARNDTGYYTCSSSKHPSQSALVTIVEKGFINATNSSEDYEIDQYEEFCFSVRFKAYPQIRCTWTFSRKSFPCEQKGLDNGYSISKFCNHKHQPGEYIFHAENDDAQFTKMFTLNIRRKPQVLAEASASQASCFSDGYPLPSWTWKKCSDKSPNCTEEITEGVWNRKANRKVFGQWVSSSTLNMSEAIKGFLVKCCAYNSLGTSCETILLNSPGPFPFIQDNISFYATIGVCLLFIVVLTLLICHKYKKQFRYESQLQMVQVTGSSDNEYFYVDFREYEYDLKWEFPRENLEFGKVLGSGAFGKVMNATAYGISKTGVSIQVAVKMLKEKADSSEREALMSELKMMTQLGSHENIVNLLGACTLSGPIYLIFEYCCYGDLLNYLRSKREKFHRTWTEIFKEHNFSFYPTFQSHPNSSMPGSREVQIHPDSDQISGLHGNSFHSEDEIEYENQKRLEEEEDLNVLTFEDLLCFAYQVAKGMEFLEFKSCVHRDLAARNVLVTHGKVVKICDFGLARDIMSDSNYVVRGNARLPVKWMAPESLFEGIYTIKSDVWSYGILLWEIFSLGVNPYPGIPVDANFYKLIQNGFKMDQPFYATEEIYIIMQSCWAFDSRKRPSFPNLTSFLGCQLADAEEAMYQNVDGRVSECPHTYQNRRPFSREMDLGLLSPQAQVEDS

[10] = test system: Ba/F3 SLC34A2-ROS1 G2032R xenograft tumors; assay: Mouse efficacy study, Ba/F3 SLC34A2-ROS1 G2032R xenograft; type: in vivo; conditions: NOD/SCID mice
Description: All the procedures related to animal handling, care, and treatment in this study were performed according to guidelines approved by the Institutional Animal Care and Use Committee (IACUC) of Xavier University of Louisiana following the guidance of the AAALAC. Ba/F3-ROS1 and Ba/F3-ROS1-G2032R cells were maintained in RPMI 1640 medium supplemented with 10% fetal bovine serum. The cells growing in an exponential growth phase were harvested and counted for tumor inoculation. Female NOD/SCID mice 6–8 weeks of age were allowed to adapt to laboratory conditions for 10 days prior to dosing and were allowed food and water ad libitum. Each mouse was inoculated subcutaneously in the right flank with Ba/F3 CD74-ROS1 or Ba/F3 SL34A2-ROS1 G2032R cells (1 × 10^6) in 0.2 mL of PBS mixed with Matrigel (50:50) for tumor development.

[11] = test system: Ba/F3 ROS1-G2032R; assay: Antiproliferation assay; type: cell-based, mouse; conditions: Mus musculus, BaF3; Ba/F3 cells, cell growth inhibition, 72 h

IC50 [2]: 2.4 nM
logP [3]: 2.54
AUC (iv) [4]: 1736 ng·h/mL
IC50 [5]: 10.9 nM
IC50 [6]: 95 nM
IC50 [7]: 83 nM
IC50 [8]: 69 nM
IC50 [9]: < 10 nM and 3.5 nM
IC50 [11]: 6.3 ± 2.1 nM
Compound: COc1cc(N2CCC(N3CCN(CC4CCN(c5ccc6c(c5)CN(C5CCC(=O)NC5=O)C6=O)CC4)CC3)CC2)ccc1Nc1ncc(Cl)c(Nc2ccccc2P(C)(C)=O)n1 (stereo not drawn) [9o, 3-(5-(4-((4-(1-(4-((5-Chloro-4-((2-(dimethylphosphoryl)phenyl)amino)pyrimidin-2-yl)amino)-3-methoxyphenyl)piperidin-4-yl)piperazin-1-yl)methyl)piperidin-1-yl)-1-oxoisoindolin-2-yl)piperidine-2,6-dione]
Dmax (%) (ROS1) [1]: 99%
TGI (tumor growth inhibition) ([10]; 10 mg/kg PO qd): 33%
TGI (tumor growth inhibition) ([10]; 30 mg/kg PO qd): 78%
